Laboratory results published in paper PMC10787790, “Isatin-tethered halogen-containing acylhydrazone derivatives as monoamine oxidase inhibitor with neuroprotective effect” (Scientific Reports, 2024).

What was measured:
[1] = molecular target: T1, MAO-B (Homo sapiens, UniProt P27338); test: MAO-B inhibition assay (continuous, benzylamine); conditions: for SI (selectivity index): (IC50 of MAO-A)/(IC50 of MAO-B), MAO-B compared to MAO-A; for remaining activity at 10 µM: read-out: Residual activity at 10 µM (%) MAO-B
T1 sequence (P27338 1-520): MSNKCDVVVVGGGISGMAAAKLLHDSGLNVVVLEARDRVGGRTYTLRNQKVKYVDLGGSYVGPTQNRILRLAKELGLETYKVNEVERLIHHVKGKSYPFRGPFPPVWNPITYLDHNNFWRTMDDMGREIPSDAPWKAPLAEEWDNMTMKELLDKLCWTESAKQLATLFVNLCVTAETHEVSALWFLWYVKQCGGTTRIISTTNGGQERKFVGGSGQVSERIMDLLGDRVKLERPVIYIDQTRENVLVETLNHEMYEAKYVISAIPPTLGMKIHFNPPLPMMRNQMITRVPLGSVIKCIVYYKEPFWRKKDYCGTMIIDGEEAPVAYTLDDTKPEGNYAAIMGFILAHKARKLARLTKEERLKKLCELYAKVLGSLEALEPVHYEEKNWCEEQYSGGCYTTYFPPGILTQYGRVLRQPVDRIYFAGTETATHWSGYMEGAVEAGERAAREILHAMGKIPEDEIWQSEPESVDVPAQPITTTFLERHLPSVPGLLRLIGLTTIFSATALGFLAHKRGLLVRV

[2] = molecular target: T2, MAO-A (Homo sapiens, UniProt P21397); test: MAO-A inhibition assay (continuous, kynuramine); conditions: for remaining activity at 10 µM: read-out: Residual activity at 10 µM (%) MAO-A
T2 sequence (P21397 1-527): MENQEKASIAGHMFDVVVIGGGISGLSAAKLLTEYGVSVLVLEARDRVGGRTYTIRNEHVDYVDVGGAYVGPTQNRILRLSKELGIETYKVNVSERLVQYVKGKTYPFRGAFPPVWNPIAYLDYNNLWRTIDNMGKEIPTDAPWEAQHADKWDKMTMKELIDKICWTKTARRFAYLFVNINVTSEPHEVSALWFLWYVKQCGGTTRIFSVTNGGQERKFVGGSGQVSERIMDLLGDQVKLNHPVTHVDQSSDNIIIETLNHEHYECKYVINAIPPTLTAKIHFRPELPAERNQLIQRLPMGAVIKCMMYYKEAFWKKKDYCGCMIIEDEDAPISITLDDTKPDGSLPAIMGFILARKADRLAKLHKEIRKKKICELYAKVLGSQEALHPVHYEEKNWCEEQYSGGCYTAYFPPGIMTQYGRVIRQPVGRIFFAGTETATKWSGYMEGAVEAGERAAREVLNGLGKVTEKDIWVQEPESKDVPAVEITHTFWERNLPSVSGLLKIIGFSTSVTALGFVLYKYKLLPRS

[3] = Parallel artificial membrane permeability assay (PAMPA), BBB; format: in vitro ADME; conditions: for Experimental Pe: pH 7.4; for Papp: pH 7.4, read-out: Experimental Pe
Procedure: The blood–brain barrier (BBB) permeation abilities of the four lead molecules were analyzed using the PAMPA method[44],[45]. The detailed procedure is explained in the Supplementary Data.
Using a microtiter plate with 96 wells and a Millipore filter plate with 96 wells (ipvh, 125 μm thick filter, 0.45 μm pore), which was then saturated with 0.1 mL of n-dodecane, a "sandwich" structure was created in PAMPA. Stock solutions of drug samples in DMSO were created at a 10 mM concentration. The stock solution was diluted in buffer at pH 7.4 before being added to a 96-well filter plate in order to achieve a final sample concentration (0.01, 0.1, and 1 mM) and keep the DMSO concentration at 1% (v/v). The final dilutions were divided into 270 μL for the donor wells and 200 μL of pH 7.4 buffer for the acceptor well. The donor plate was placed on the top of the acceptor filter plate to form a sandwich (comprising of a synthetic lipid membrane in the center, an aqueous receiver on […], and an aqueous donor carrying an analyte on the bottom.). The test substance diffuses from the donor well across the lipid membrane and into the acceptor well. The sandwich is said to have been intact when the penetration occurred. The drug concentration in the reference, donor, and receiver wells was measured using UV spectroscopy. The rate of penetration is calculated using the following expression.
Log Pe = -ln [1-CA /Equilibrium]/A× (1/VD + 1/VA) × t

[4] = molecular target: T2, MAO-A; test: Enzyme kinetics, Lineweaver-Burk and secondary plots, MAO-A
[5] = system: TNF-α; test: TNF-α expression in LPS-induced SH-SY5Y cells; format: cell-based, human; conditions: LPS 1 µg/mL 2 h, compound 24 h, SH-SY5Y
[6] = system: CAT; test: Catalase (CAT) activity in LPS-induced SH-SY5Y cells; format: cell-based, human; conditions: 10 µM/mL
[7] = system: SOD; test: Superoxide dismutase (SOD) activity in LPS-induced SH-SY5Y cells; format: cell-based, human; conditions: 10 µM/mL
[8] = system: ROS; test: ROS assay (DCF) in LPS-treated SH-SY5Y cells; format: cell-based, human
[9] = system: NF-kB; test: NF-kB expression in LPS-induced SH-SY5Y cells
[10] = molecular target: T2, MAO-A; test: Reversibility study by dialysis, MAO-A
[11] = system: IL-6; test: IL-6 expression in LPS-induced SH-SY5Y cells; format: cell-based, human; conditions: LPS 1 µg/mL 2 h, compound 24 h, SH-SY5Y
[12] = system: GPx; test: Glutathione peroxidase (GPx) activity in LPS-induced SH-SY5Y cells; format: cell-based, human; conditions: 10 µM/mL

IC50 [1]	SI (selectivity index) [1]	remaining activity at 10 µM [1]	IC50 [2]	remaining activity at 10 µM [2]	SMILES	CNS/BBB permeability in words [3]	Prediction (CNS permeation class) [3]	Experimental Pe [3]	Papp [3]	further results
7.28 ± 1.72 µM	4.51	42.5 ± 8.93%	32.85 ± 0.134 µM	70.1 ± 1.93%	O=C1Nc2ccc(Br)cc2/C1=N/NC(=O)c1ccc(F)cc1 [IS4]	–	–	–	–	–
0.234 ± 0.008 µM	48.15	23 ± 2.48%	11.3 ± 0.414 µM	53.1 ± 0.91%	O=C1Nc2ccc(Cl)cc2/C1=N/NC(=O)c1ccc(Cl)cc1 [IS14]	–	–	–	–	–
0.337 ± 0.007 µM	5.50	12.5 ± 3.64%	1.85 ± 0.085 µM	34.7 ± 0.71%	O=C1Nc2ccc(Cl)cc2/C1=N/NC(=O)c1ccc(Br)cc1 [IS15]	high permeability and CNS bioavailability	CNS+ (Pe (10^−6 cm/s) > 4.00: CNS + (high permeation))	> 4 ×10⁻⁶ cm/s	4.39 ± 0.3 ×10⁻⁶ cm/s	Ki [4]: 1 ± 0.171 µM; Type of MAO-A inhibition ([4]; LB plot): competitive; TNF-alpha level vs LPS-treated group [5]: significantly (p < 0.0001) reduced; CAT (cellular anti-oxidant enzyme) effect [6]: enhancing the enzyme activity; SOD (cellular anti-oxidant enzyme) effect [7]: enhancing the enzyme activity; DCF intensity decrease at 10 µM ([8]; 10 µM/mL (10 µM), vs LPS-induced cells): effective DCF intensity decrease; DCF expression (ROS) vs cells treated with LPS alone ([8]; LPS-induced SH-SY5Y): significantly inhibited (p < 0.0001); NF-kB level vs LPS-treated group ([9]; LPS 1 µg/mL 2 h, compound 24 h, SH-SY5Y): significantly (p < 0.0001) reduced; NF-kB expression compared to IS6 and IS7 ([9]; LPS-treated cell lines): significantly lower; Reversibility of MAO-A inhibition [10]: reversible-type inhibitors; Fold higher MAO-A inhibition than IS7 ([2]; relative to IS7): 10.35 times; Fold higher MAO-A inhibition than IS13 ([2]; relative to IS13): 11.94 times; IL-6 level vs LPS-treated group [11]: significantly (p < 0.0001) reduced; GPx (cellular anti-oxidant enzyme) effect [12]: enhancing the enzyme activity
0.514 ± 0.023 µM	4.64	1.04 ± 0.23%	2.385 ± 0.018 µM	29.5 ± 0.34%	O=C1Nc2ccc(Br)cc2/C1=N/NC(=O)c1ccc(Br)cc1 [IS3]	–	–	–	–	–
0.42 ± 0.028 µM	> 95.24	22 ± 2.75%	> 40 µM	83.1 ± 2.34%	O=C1Nc2ccc(Br)cc2/C1=N/NC(=O)c1ccccc1 [IS1]	–	–	–	–	–

The remaining lines, values behind:

SMILES	IC50 [1]	SI (selectivity index) [1]	remaining activity at 10 µM [1]	IC50 [2]	remaining activity at 10 µM [2]	CNS/BBB permeability in words [3]	Prediction (CNS permeation class) [3]	Experimental Pe [3]	Papp [3]	further results
O=C1Nc2ccc(Cl)cc2/C1=N/NC(=O)c1ccccc1 [IS13]	–	–	–	–	–	high permeability and CNS bioavailability	CNS+ (Pe (10^−6 cm/s) > 4.00: CNS + (high permeation))	> 4 ×10⁻⁶ cm/s	4.66 ± 0.18 ×10⁻⁶ cm/s	–
O=C1Nc2ccc(F)cc2/C1=N/NC(=O)c1ccc(Cl)cc1 [IS10]	3.99 ± 0.472 µM	4.58	42.6 ± 0.82%	18.3 ± 0.729 µM	54.1 ± 0.78%	–	–	–	–	–
O=C1Nc2ccccc2/C1=N/NC(=O)c1ccc(Cl)cc1 [IS6]	–	–	–	–	–	high permeability and CNS bioavailability	CNS+ (Pe (10^−6 cm/s) > 4.00: CNS + (high permeation))	> 4 ×10⁻⁶ cm/s	4.86 ± 0.26 ×10⁻⁶ cm/s	–
